Data: patent US20250387400A1, “TYK2 INHIBITORS” (BIOGEN MA INC., priority 2022, published 2025)
Read-outs that look alike come from different tables or passages of the source.

Tests used:
Type in all cases: biochemical
[1] = target: T1, catalytic kinase (JH1) domain of human JAK3 (Homo sapiens, UniProt P52333); experiment: ADP-Glo kinase assay, JAK3 kinase domain
T1 construct: Catalytic activities of recombinant JAK2, JAK3 and TYK2 kinase domain
Procedure: (§1) As summarized in Table 3 below, compounds of the disclosure were assessed for their ability to inhibit TYK2, JAK1, JAK2, and JAK3 activity.
(§2) The kinase activity of recombinantly generated catalytic kinase (also known as JH1) domain of human JAK1, JAK2, JAK3 and TYK2 were evaluated in a plate-based assay using the ADP-Glo™ Kinase Assay platform. […] The reactions proceed for 100 minutes and the catalytic activity is quantified by first depleting the unused ATP, converting the hydrolyzed ADP into ATP to generate luminescence in a luciferase reaction; which is the basis of the ADP-Glo platform. Compounds are tested at either 10 μM or 1 μM top concentration, 11 points of 3-fold dilution. The data is normalized and the percent activity versus log concentration of compound is fitted with a 4-parameter logistic model to generate a curve and an IC50 value.

[2] = target: T2, catalytic kinase (JH1) domain of human JAK2 (Homo sapiens, UniProt O60674); experiment: ADP-Glo kinase assay, JAK2 kinase domain
T2 construct: Catalytic activities of recombinant JAK2, JAK3 and TYK2 kinase domain
T2 sequence (O60674 849-1124 limits assumed): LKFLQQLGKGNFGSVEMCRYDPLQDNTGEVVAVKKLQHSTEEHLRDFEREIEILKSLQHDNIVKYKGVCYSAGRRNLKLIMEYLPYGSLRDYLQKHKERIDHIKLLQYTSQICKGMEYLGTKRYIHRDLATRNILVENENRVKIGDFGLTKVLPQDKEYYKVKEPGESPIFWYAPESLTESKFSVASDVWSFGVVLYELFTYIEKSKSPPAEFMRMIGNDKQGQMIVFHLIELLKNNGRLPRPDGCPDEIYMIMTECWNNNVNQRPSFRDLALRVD
Procedure: as §1, §2

[3] = target: T3, catalytic kinase (JH1) domain of human TYK2 (Homo sapiens, UniProt P29597); experiment: ADP-Glo kinase assay, TYK2 kinase domain
T3 construct: recombinantly generated catalytic kinase (also known as JH1) domain of human JAK1, JAK2, JAK3 and TYK2
T3 sequence (P29597 897-1176 limits assumed): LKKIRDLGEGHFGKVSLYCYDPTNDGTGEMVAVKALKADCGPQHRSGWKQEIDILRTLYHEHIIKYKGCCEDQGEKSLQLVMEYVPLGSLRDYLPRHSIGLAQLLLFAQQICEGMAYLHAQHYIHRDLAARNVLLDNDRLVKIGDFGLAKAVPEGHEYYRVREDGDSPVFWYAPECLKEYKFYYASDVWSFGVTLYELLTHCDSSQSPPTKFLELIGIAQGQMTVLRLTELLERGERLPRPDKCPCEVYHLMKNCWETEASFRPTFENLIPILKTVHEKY
Procedure: as §1, §2

[4] = target: T4, catalytic kinase (JH1) domain of human JAK1 (Homo sapiens, UniProt P23458); experiment: ADP-Glo kinase assay, JAK1 kinase domain
T4 construct: 4 nM of recombinant JAK1 kinase domain is used to phosphorylate
T4 sequence (P23458 875-1153 limits assumed): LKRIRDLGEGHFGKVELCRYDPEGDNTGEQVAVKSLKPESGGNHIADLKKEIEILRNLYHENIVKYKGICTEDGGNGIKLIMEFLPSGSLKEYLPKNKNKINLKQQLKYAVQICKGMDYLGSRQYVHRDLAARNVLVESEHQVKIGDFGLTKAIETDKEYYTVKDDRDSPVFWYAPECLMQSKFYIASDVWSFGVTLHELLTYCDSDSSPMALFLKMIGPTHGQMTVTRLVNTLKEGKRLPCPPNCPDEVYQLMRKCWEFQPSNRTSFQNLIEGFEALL
Procedure: as §1, §2

[5] = 0.3 nM recombinant JAK3 kinase domain, 50 μM JAK3-974 peptide, 4 μM ATP, 100 minutes, read-out: JAK3 biochem IC50 (nM) Mean
[6] = 0.2 nM recombinant JAK2 kinase domain, 50 μM JAK3-974 peptide, 15 μM ATP, 100 minutes, read-out: JAK2 biochem IC50 (nM) Mean
[7] = 2 nM recombinant TYK2 kinase domain, 50 μM JAK3-974 peptide, 10 μM ATP, 100 minutes, read-out: TYK2 biochem IC50 (nM) Mean
[8] = 4 nM recombinant JAK1 kinase domain, 50 μM JAK3-342 peptide, 35 μM ATP, 100 minutes, read-out: JAK1 biochem IC50 (nM) Mean

T1 sequence (P52333 822-1111 limits assumed): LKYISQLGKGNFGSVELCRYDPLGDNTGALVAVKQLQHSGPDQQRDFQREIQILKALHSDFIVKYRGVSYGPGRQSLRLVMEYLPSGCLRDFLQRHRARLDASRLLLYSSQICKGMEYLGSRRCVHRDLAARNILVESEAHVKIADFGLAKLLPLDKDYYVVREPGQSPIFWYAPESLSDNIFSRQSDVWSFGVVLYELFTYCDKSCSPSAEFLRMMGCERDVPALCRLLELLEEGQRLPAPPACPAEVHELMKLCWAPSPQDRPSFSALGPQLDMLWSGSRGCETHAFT

Structure (SMILES)	IC50 [1, 5] [nM]	IC50 [2, 6] [nM]	IC50 [3, 7] [nM]	IC50 [4, 8] [nM]	IC50 [1] [nM]	IC50 [2] [nM]	IC50 [3] [nM]	IC50 [4] [nM]
Cn1cc(-c2cc3c(N4CC5CCC(C4)N5C4CC(F)(F)C4)ccnn3c2)cn1 [Example 52, 4-(8-(3,3-difluorocyclobutyl)-3,8-diazabicyclo[3.2.1]octan-3-yl)-6-(1-methyl-1H-pyrazol-4-yl)pyrrolo[1,2-b]pyridazine]	574	35	1.9	57.2				
N#CC1CC(N2C3CCC2CN(c2ccnn4cc(-c5ccnnc5)cc24)C3)C1 (stereo not drawn) [Example 55, 3-(3-(6-(pyridazin-4-yl)pyrrolo[1,2-b]pyridazin-4-y1)-3,8-diazabicyclo[3.2.1]octan-8-yl)cyclobutane-1-carbonitrile]					625	80.5	11.5	130
c1cc(-c2cc3c(N4CC5CCC(C4)N5C4COC4)ccnn3c2)cnn1 [Example 56, 4-(8-(oxetan-3-yl)-3,8-diazabicyclo[3.2.1]octan-3-yl)-6-(pyridazin-4-yl)pyrrolo[1,2-b]pyridazine]	> 10000	950	90	820				
Cc1cc(-c2cc3c(N4CC5CCC(C4)N5[C@H]4C[C@H](C#N)C4)ccnn3c2)on1 [Example 58, (1R,3r)-3-(3-(6-(3-methylisoxazol-5-yl)pyrrolo[1,2-b]pyridazin-4-yl)-3,8-diazabicyclo[3.2.1]octan-8-yl)cyclobutane-1-carbonitrile]					3450	385	40.5	795
Cc1cc(-c2cc3c(N4CC5CCC(C4)N5[C@H]4C[C@@H](C#N)C4)ccnn3c2)on1 [Example 59, (1S,3s)-3-(3-(6-(3-methylisoxazol-5-yl)pyrrolo[1,2-b]pyridazin-4-yl)-3,8-diazabicyclo[3.2.1]octan-8-yl)cyclobutane-1-carbonitrile]					220	26	4.25	65.5
N#C[C@H]1C[C@@H](N2C3CCC2CN(c2ccnn4cc(-c5cnn(C(F)F)c5)cc24)C3)C1 [Example 60, (1S,3s)-3-(3-(6-(1-(difluoromethyl)-1H-pyrazol-4-yl)pyrrolo[1,2-b]pyridazin-4-yl)-3,8-diazabicyclo[3.2.1]octan-8-yl)cyclobutane-1-carbonitrile]	132	17.5	2.38	25.5				
Cn1cc(-c2cc3c(N4CC5CCC(C4)N5[C@H]4C[C@H](C#N)C4)ncnc3[nH]2)cn1 [Example 63, (1R,3r)-3-(3-(6-(1-methyl-1H-pyrazol-4-yl)-7H-pyrrolo[2,3-d]pyrimidin-4-yl)-3,8-diazabicyclo[3.2.1]octan-8-yl)cyclobutane-1-carbonitrile]	1650	1800	260	4250				
Cn1cc(-c2cc3c(N4CC5CCC(C4)N5[C@H]4C[C@@H](C#N)C4)ncnc3[nH]2)cn1 [Example 64, (1S,3s)-3-(3-(6-(1-methyl-1H-pyrazol-4-yl)-7H-pyrrolo[2,3-d]pyrimidin-4-yl)-3,8-diazabicyclo[3.2.1]octan-8-yl)cyclobutane-1-carbonitrile]	205	260	41.5	340				
Cn1cc(-c2cn3nccc(N4CC5CCC(C4)N5[C@H]4C[C@@H](C#N)C4)c3n2)cn1 [Example 65, (1S,3s)-3-(3-(2-(1-methyl-1H-pyrazol-4-yl)imidazo[1,2-b]pyridazin-8-yl)-3,8-diazabicyclo[3.2.1]octan-8-yl)cyclobutane-1-carbonitrile]					1650	293	70.7	227
Cn1cc(-c2cn3nccc(N4CC5CCC(C4)N5[C@H]4C[C@H](C#N)C4)c3n2)cn1 [Example 66, (1R,3r)-3-(3-(2-(1-methyl-1H-pyrazol-4-yl)imidazo[1,2-b]pyridazin-8-yl)-3,8-diazabicyclo[3.2.1]octan-8-yl)cyclobutane-1-carbonitrile]					102	21.3	3.83	15.1

Continued, in another order:

IC50 [1, 5] [nM]	IC50 [2, 6] [nM]	IC50 [3, 7] [nM]	IC50 [4, 8] [nM]	Structure (SMILES)	IC50 [1] [nM]	IC50 [2] [nM]	IC50 [3] [nM]	IC50 [4] [nM]
460	54	6.95	88	COCC[C@]1(C#N)C[C@@H](N2C3CCC2CN(c2ccnn4cc(-c5cnn(C)c5)cc24)C3)C1 [Example 39, (1s,3s)-1-(2-methoxyethyl)-3-(3-(6-(1-methyl-1H-pyrazol-4-yl)pyrrolo[1,2-b]pyridazin-4-yl)-3,8-diazabicyclo[3.2.1]octan-8-yl)cyclobutane-1-carbonitrile]				
2400	400	100	675	COC[C@]1(C#N)C[C@H](N2C3CCC2CN(c2ccnn4cc(-c5cnn(C)c5)cc24)C3)C1 [Example 42, (1s,3s)-1-(methoxymethyl)-3-(3-(6-(1-methyl-1H-pyrazol-4-yl)pyrrolo[1,2-b]pyridazin-4-yl)-3,8-diazabicyclo[3.2.1]octan-8-yl)cyclobutane-1-carbonitrile]				
260	39	3.7	73	COC[C@]1(C#N)C[C@@H](N2C3CCC2CN(c2ccnn4cc(-c5cnn(C)c5)cc24)C3)C1 [Example 43, (1r,3r)-1-(methoxymethyl)-3-(3-(6-(1-methyl-1H-pyrazol-4-yl)pyrrolo[1,2-b]pyridazin-4-yl)-3,8-diazabicyclo[3.2.1]octan-8-yl)cyclobutane-1-carbonitrile]				
3550	900	82	1700	Cn1cc(-c2cc3c(N4CC5CCC(C4)N5[C@H]4C[C@@H](CC#N)C4)ccnn3c2)cn1 [Example 44, 2-((1s,3s)-3-(3-(6-(1-methyl-1H-pyrazol-4-yl)pyrrolo[1,2-b]pyridazin-4-yl)-3,8-diazabicyclo[3.2.1]octan-8-yl)cyclobutyl)acetonitrile]				
9400	2700	195	2400	Cn1cc(-c2cc3c(N4CC5CCC(C4)N5[C@H]4C[C@H](CC#N)C4)ccnn3c2)cn1 [Example 45, 2-((1r,3r)-3-(3-(6-(1-methyl-1H-pyrazol-4-yl)pyrrolo[1,2-b]pyridazin-4-yl)-3,8-diazabicyclo[3.2.1]octan-8-yl)cyclobutyl)acetonitrile]				
> 10000	5700	715	4200	COc1cc(-c2cc3c(N4CC5CCC(C4)N5C4COC4)ccnn3c2)cnn1 [Example 53, 6-(6-methoxypyridazin-4-yl)-4-(8-(oxetan-3-yl)-3,8-diazabicyclo[3.2.1]octan-3-yl)pyrrolo[1,2-b]pyridazine]				
1600	305	72	420	COc1cc(-c2cc3c(N4CC5CCC(C4)N5C4CC(C#N)C4)ccnn3c2)cnn1 (stereo not drawn) [Example 54, 3-(3-(6-(6-methoxypyridazin-4-yl)pyrrolo[1,2-b]pyridazin-4-y1)-3,8-diazabicyclo[3.2.1]octan-8-yl)cyclobutane-1-carbonitrile]				
690	108	13	134	Cc1cc(-c2cc3c(N4CC5CCC(C4)N5C4CC(C#N)C4)ccnn3c2)cnn1 (stereo not drawn) [Example 57, 3-(3-(6-(6-methylpyridazin-4-yl)pyrrolo[1,2-b]pyridazin-4-yl)-3,8-diazabicyclo[3.2.1]octan-8-yl)cyclobutane-1-carbonitrile]				
